This is an account of results in patent US20260184693A1, “INHIBITORS OF SOLUTE CARRIER FAMILY 6A MEMBER 19 (SLC6A19) AND METHODS OF USE THEREOF” (Maze Therapeutics, Inc., priority 2022, published 2026).

Assay [1] concerns the target T1, human SLC6A19 (Homo sapiens, UniProt Q695T7).
T1 construct: expressed in transfected cells
T1 sequence (Q695T7 1-634): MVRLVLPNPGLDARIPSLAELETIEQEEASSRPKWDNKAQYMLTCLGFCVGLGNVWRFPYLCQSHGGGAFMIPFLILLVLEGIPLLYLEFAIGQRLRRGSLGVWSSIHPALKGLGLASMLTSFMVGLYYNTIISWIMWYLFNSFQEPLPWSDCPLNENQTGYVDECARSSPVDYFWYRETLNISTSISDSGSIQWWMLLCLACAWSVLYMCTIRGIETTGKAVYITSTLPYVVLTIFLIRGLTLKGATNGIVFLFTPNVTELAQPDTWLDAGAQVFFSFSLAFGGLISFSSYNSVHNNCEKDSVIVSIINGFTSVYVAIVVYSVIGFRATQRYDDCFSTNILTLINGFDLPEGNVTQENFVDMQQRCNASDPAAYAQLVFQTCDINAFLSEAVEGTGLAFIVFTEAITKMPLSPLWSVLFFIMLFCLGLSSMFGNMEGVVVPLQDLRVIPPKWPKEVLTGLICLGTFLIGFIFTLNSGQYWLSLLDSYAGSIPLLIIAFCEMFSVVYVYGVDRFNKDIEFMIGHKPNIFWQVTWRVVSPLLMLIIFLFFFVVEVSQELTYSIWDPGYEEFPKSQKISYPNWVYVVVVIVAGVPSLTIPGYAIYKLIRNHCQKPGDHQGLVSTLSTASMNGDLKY
T1 sequence (Q9HBJ8 15-222 partner): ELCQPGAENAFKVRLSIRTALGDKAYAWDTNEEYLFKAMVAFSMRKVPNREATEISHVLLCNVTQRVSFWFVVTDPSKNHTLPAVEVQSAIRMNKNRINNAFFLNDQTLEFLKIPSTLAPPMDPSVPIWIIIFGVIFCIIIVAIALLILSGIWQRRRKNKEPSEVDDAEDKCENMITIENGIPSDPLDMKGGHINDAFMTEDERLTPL
Put plainly: Example B-1: L-[3H]leucine uptake, liquid scintillation, in CHO cells with doxycycline-inducible expression of human SLC6A19 and TMEM27. The class given is cell-based. To be noted: read-out: SLC6A19_Radioligand Uptake Assay IC50. The procedure, abridged: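 CHO cells induced 18 h with 1 µg/mL doxycycline (uninduced wells as expression control), washed in HBSS, compound in 8-point 3-fold series (0.5% DMSO), then 1.6 mM final [3H]:cold leucine (1:15000) uptake for 20 min at 37 °C. Scintillation counting; activity normalized to positive control (0%) and DMSO (100%).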

Assay [2] deals with T1, human SLC6A19. Put plainly: Example B2: 13C6,15N-isoleucine uptake, RapidFire mass spectrometry, in CHO cells with doxycycline-inducible expression of human SLC6A19 and TMEM27. The format is cell-based. Particulars: read-out: SLC6A19_RapidFire Uptake Assay IC50. In a few lines:
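CHO cells were induced with doxycycline to express human SLC6A19 with TMEM27, then pre-incubated 20 min at 37 °C with compounds (2-fold, 10-point, duplicate). Uptake of 13C6,15N-isoleucine (2 mM solution added) over a further 20 min was measured by RapidFire mass spectrometry, using 13C-leucine as internal standard.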

Consider `CC(=O)N1CCC[C@@H](N(C(=O)NCc2cc3cc(Cl)ccc3[nH]2)C2CC2)C1` [Compound 222, (R)-1-(1-acetylpiperidin-3-yl)-3-((5-chloro-1H-indol-2-yl)methyl)-1-cyclopropylurea], for which the concentration for half-maximal inhibition (IC50) (as a rule, the midpoint of a concentration-inhibition curve) on human SLC6A19 [1] worked out at 193 nM; on human SLC6A19 [2] it was 63.3 nM.

As for `CC(=O)N1CC[C@@H](C)[C@@H](N(C)C(=O)NCc2cc3cc(Cl)ccc3[nH]2)C1` (racemic) [Compound 203, 1-((3R,4R and 3S,4S)-1-acetyl-4-methylpiperidin-3-yl)-3-((5-chloro-1H-indol-2-yl)methyl)-1-methylurea], the IC50 at human SLC6A19 [1] was 2170 nM; at human SLC6A19 [2], 4870 nM.

With `CCc1ccc2[nH]c(CNC(=O)N(C)[C@@H]3CCCN(C(C)=O)C3)cc2c1` [Compound 217, (R)-1-(1-acetylpiperidin-3-yl)-3-((5-ethyl-1H-indol-2-yl)methyl)-1-methylurea], the 50% inhibitory concentration (IC50) on human SLC6A19 [1] worked out at 574 nM; at human SLC6A19 [2] it was 738 nM.

For `CN(C(=O)NCc1cc2cc(Cl)ccc2[nH]1)[C@@H]1CCCN(C(=O)Cc2cocn2)C1` [Compound 202, (R)-3-((5-chloro-1H-indol-2-yl)methyl)-1-methyl-1-(1-(2-(oxazol-4-yl)acetyl)piperidin-3-yl)urea], the half-maximal inhibitory concentration (IC50) on human SLC6A19 [1] turned out to be 168 nM; on human SLC6A19 [2] it was 689 nM.

`CCN(C(=O)NCc1cc2cc(Cl)ccc2[nH]1)[C@@H]1CCCN(C(=O)C2CCC2)C1` [Compound 232, (R)-3-((5-chloro-1H-indol-2-yl)methyl)-1-(1-(cyclobutanecarbonyl)piperidin-3-yl)-1-ethylurea]: the results for the IC50 at human SLC6A19 [1] and at human SLC6A19 [2] were 230 nM and 45.3 nM, respectively.

For the compound `CN(C(=O)NCc1cc2cc(Cl)ccc2[nH]1)[C@@H]1CCCN(C(=O)c2ccn[nH]2)C1` [Compound 191, (R)-1-(1-(1H-pyrazole-5-carbonyl)piperidin-3-yl)-3-((5-chloro-1H-indol-2-yl)methyl)-1-methylurea], the values for the IC50 on human SLC6A19 [1] and at human SLC6A19 [2] were 151 nM and 312 nM, respectively.

On to `CC(=O)N1C[C@@H](N(C)C(=O)NCc2cc3cc(Cl)ccc3[nH]2)CC[C@H]1C` (single isomer, unassigned) [Compound 193, 1-((3S,6R or 3R,6S)-1-acetyl-6-methylpiperidin-3-yl)-3-((5-chloro-1H-indol-2-yl)methyl)-1-methylurea], for which the half-maximal inhibitory concentration (IC50) on human SLC6A19 [1] and at human SLC6A19 [2] was over 50000 nM throughout.

Regarding `CN(C(=O)NCc1cc2cc(Cl)ccc2[nH]1)[C@@H]1CCCN(C(=O)C2CC(O)C2)C1` (stereo partly drawn) [Compound 119, (R)-3-((5-chloro-1H-indol-2-yl)methyl)-1-(1-(3-hydroxycyclobutane-1-carbonyl)piperidin-3-yl)-1-methylurea], the IC50 at human SLC6A19 [1] came out at 629 nM; at human SLC6A19 [2] it was 839 nM.

As to `CN(C(=O)NCc1cc2cc(Cl)ccc2[nH]1)[C@@H]1CCCN(C(=O)c2ccc(O)cc2)C1` [Compound 189, (R)-3-((5-chloro-1H-indol-2-yl)methyl)-1-(1-(4-hydroxybenzoyl)piperidin-3-yl)-1-methylurea], the figures for the half-maximal inhibitory concentration (IC50) on human SLC6A19 [1] and at human SLC6A19 [2] were 264 nM and 380 nM, respectively.

`CC(=O)N1CCC[C@@H](N(C)C(=O)NCc2cc3[nH]cc(C)c3cc2Cl)C1` [Compound 235, (R)-1-(1-acetylpiperidin-3-yl)-3-((5-chloro-3-methyl-1H-indol-6-yl)methyl)-1-methylurea]: the half-maximal inhibitory concentration (IC50) on human SLC6A19 [1] was found to be 673 nM; at human SLC6A19 [2], 893 nM.
